Target: HiBiT tagged Wee1 (Homo sapiens, UniProt P30291)
Test: Wee1 protein degradation assay (HiBiT assay)
Assay type: cell-based
Conditions: engineered HT-1080 cells, 20 hours; for Dmax: maximum percentage of Wee1 degradation, read-out: HiBiT Wee1: Dmax

Chain of HiBiT tagged Wee1 (P30291 whole entry): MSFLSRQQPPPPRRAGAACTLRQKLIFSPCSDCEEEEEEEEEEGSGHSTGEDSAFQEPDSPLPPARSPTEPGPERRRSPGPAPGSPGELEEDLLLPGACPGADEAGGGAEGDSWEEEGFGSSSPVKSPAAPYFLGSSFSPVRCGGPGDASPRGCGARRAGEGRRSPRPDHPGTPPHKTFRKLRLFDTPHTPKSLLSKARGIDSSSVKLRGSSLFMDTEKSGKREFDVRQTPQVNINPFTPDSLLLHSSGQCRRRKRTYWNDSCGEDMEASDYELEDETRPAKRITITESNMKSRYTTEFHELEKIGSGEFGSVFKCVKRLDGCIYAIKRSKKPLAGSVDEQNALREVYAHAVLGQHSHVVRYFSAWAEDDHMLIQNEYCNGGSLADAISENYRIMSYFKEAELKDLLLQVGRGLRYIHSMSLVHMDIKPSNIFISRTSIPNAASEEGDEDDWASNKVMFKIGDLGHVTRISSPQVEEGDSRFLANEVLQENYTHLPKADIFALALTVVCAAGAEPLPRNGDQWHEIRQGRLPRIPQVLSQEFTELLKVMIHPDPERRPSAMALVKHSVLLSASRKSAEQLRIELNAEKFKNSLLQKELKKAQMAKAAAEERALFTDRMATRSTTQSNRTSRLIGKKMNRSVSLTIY

DC50 | Dmax | Structure (SMILES)
< 100 nM | > 75% | C=CCn1c(=O)c2cnc(Nc3ccc(N4CCC(N5CC[C@@H](c6ccc(NC7CCC(=O)NC7=O)cc6F)C(F)(F)C5)CC4)cc3)nc2n1-c1ccc2c(n1)[C@@](O)(CC)CC2 (single isomer, unassigned) [Compound 184]
> 1000 nM | < 50% | C=CCn1c(=O)c2cnc(Nc3ccc(N4CCC(CN5CCC(c6cccc7c6n(C)c(=O)n7C6CCC(=O)NC6=O)CC5)CC4)cc3)nc2n1-c1ccc2c(n1)[C@](O)(CC)CC2 (stereo partly drawn) [Compound 53]
< 100 nM | > 75% | C=CCn1c(=O)c2cnc(Nc3ccc(N4CCC5(CC4)CCN(C4CN(c6ccc(NC7CCC(=O)NC7=O)cc6F)C4)CC5)cc3)nc2n1-c1ccc2c(n1)[C@@](O)(CC)CC2 (stereo partly drawn) [Compound 171]
< 100 nM | 50 to 75% | C[C@@]1(O)CC/C=C\Cn2c(=O)c3cnc(Nc4ccc(N5CCN(CC6CCN(c7ccc(NC8CCC(=O)NC8=O)cc7F)CC6)CC5)cc4)nc3n2-c2cccc1n2 (single isomer, unassigned) [Compound 142]
100 to 1000 nM | 50 to 75% | C=CCn1c(=O)c2cnc(Nc3ccc(N4CCC(CN5CCN(c6cccc7c(N8CCC(=O)NC8=O)nn(C)c67)CC5)CC4)cc3)nc2n1-c1cccc(C(C)(C)O)n1 [Compound 118]
> 1000 nM | < 50% | O=C1CCC(N2C(=O)c3ccc(N4CCC(CN5CCc6ccc(Nc7ncc8c(=O)n(-c9c(Cl)cccc9Cl)c9nccn9c8n7)cc6C5)CC4)cc3C2=O)C(=O)N1 (stereo not drawn) [Compound 5]
> 1000 nM | < 50% | C=CCn1c(=O)c2cnc(Nc3ccc(C4CCN(CC5CCN(c6ccc(N7CCC(=O)NC7=O)cc6)CC5)CC4)cc3)nc2n1-c1cccc(C(C)(C)O)n1 [Compound 146]
< 100 nM | > 75% | C=CCn1c(=O)c2cnc(Nc3ccc(C4CCN(C5CN(c6ccc7c(c6)C(=O)N(C6CCC(=O)NC6=O)C7=O)C5)CC4)cc3)nc2n1-c1cccc(C(C)(C)O)n1 (stereo not drawn) [Compound 43]
< 100 nM | > 75% | C=CCn1c(=O)c2cnc(Nc3ccc(N4CCN(C5CC6(C5)CN(c5ccc7c(N8CCC(=O)NC8=O)nn(C)c7c5)C6)CC4)cc3)nc2n1-c1ccc2c(n1)[C@@](O)(CC)CC2 [Compound 170]
< 100 nM | > 75% | C=CCn1c(=O)c2cnc(Nc3ccc(N4CCC(CN5CCN(c6ccc(NC7CCC(=O)NC7=O)cc6Cl)CC5)CC4)cc3)nc2n1-c1cccc(C(C)(C)O)n1 (stereo not drawn) [Compound 147]
< 100 nM | 50 to 75% | C=CCn1c(=O)c2cnc(Nc3ccc(N4CCN(CC5CCN(c6ccc7c(c6)CN(C6CCC(=O)NC6=O)C7=O)CC5)CC4)cc3)nc2n1-c1cccc(C(C)(C)O)n1 (stereo not drawn) [Compound 25]
< 100 nM | > 75% | C=CCn1c(=O)c2cnc(Nc3ccc(N4CCN(CC5CN(c6ccc(NC7CCC(=O)NC7=O)cc6F)C5)CC4)cc3)nc2n1-c1cccc(C(C)(C)O)n1 (stereo not drawn) [Compound 122]
> 1000 nM | < 50% | CN1CN(c2c(Cl)cccc2Cl)C(=O)c2cnc(Nc3ccc4c(c3)CN(CC3CN(c5ccc6c(c5)C(=O)N(C5CCC(=O)NC5=O)C6=O)C3)CC4)nc21 (stereo not drawn) [Compound 20]
< 100 nM | 50 to 75% | C=CCn1c(=O)c2cnc(Nc3ccc(C4CCN(C5CCN(c6ccc7c(c6)C(=O)N(C6CCC(=O)NC6=O)C7=O)CC5)CC4)cc3)nc2n1-c1ccc2c(n1)[C@@](O)(CC)CC2 (stereo partly drawn) [Compound 75]
100 to 1000 nM | 50 to 75% | C=CCn1c(=O)c2cnc(Nc3ccc(N4CCC(CN5CCC(c6cccc(NC7CCC(=O)NC7=O)c6)CC5)CC4)cc3)nc2n1-c1cccc(C(C)(C)O)n1 (stereo not drawn) [Compound 145]
< 100 nM | > 75% | C=CCn1c(=O)c2cnc(Nc3ccc(N4CCN(CC5CCN(c6ccc(NC7CCC(=O)NC7=O)cc6F)CC5)CC4)cc3)nc2n1-c1ccc2c(n1)[C@](C)(O)CCC2 (single isomer, unassigned) [Compound 190]
< 100 nM | > 75% | C=CCn1c(=O)c2cnc(Nc3ccc(N4CCN(C[C@@H]5CCN(c6ccc(NC7CCC(=O)NC7=O)cc6F)C5)CC4)cc3)nc2n1-c1cccc(C(C)(C)O)n1 (stereo partly drawn) [Compound 139]
< 100 nM | 50 to 75% | C=CCn1c(=O)c2cnc(Nc3ccc(N4CCN(CC5CN(c6ccc7c(c6)C(=O)N(C6CCC(=O)NC6=O)C7=O)C5)CC4)c(C)c3)nc2n1-c1cccc(C(C)(C)O)n1 (stereo not drawn) [Compound 12]
< 100 nM | 50 to 75% | C=CCn1c(=O)c2cnc(Nc3ccc(N4CCC(N5CC6(CN(c7ccc8c(N9CCC(=O)NC9=O)nn(C)c8c7)C6)C5)C(F)(F)C4)cc3)nc2n1-c1ccc2c(n1)[C@@](O)(CC)CC2 (stereo partly drawn) [Compound 178]
< 100 nM | > 75% | C=CCn1c(=O)c2cnc(Nc3ccc(N4CCN(CCCOc5ccc6c(c5)C(=O)N(C5CCC(=O)NC5=O)C6=O)CC4)cc3)nc2n1-c1cccc(C(C)(C)O)n1 (stereo not drawn) [Compound 62]
< 100 nM | > 75% | C=CCn1c(=O)c2cnc(Nc3ccc(C4CCN(C5CN(c6ccc(NC7CCC(=O)NC7=O)cc6F)C5)CC4)cc3)nc2n1-c1cccc(C(C)(C)O)n1 (stereo not drawn) [Compound 148]

DC50 | Dmax | Structure (SMILES)
< 100 nM | > 75% | C=CCn1c(=O)c2cnc(Nc3ccc(N4CCN(CC5CCN(c6ccc(NC7CCC(=O)NC7=O)cc6F)CC5)CC4)c(C)c3)nc2n1-c1ccc2c(n1)[C@@](C)(O)CC2 (stereo partly drawn) [Compound 131]
< 100 nM | > 75% | C=CCn1c(=O)c2cnc(Nc3ccc(N4CCC(N5CC6(CN(c7ccc(NC8CCC(=O)NC8=O)cc7F)C6)C5)CC4)cc3)nc2n1-c1ccc2c(n1)[C@@](O)(CC)CC2 (stereo partly drawn) [Compound 154]
< 100 nM | 50 to 75% | C=CCn1c(=O)c2cnc(Nc3ccc(C4CCN(C5CCN(c6cc7c(cc6F)C(=O)N(C6CCC(=O)NC6=O)C7=O)CC5)CC4)cc3)nc2n1-c1cccc(C(C)(C)O)n1 (stereo not drawn) [Compound 44]
< 100 nM | > 75% | C=CCn1c(=O)c2cnc(Nc3ccc(N4CCC(CN5CCN(c6ccc7c(N8CCC(=O)NC8=O)nn(C)c7c6)CC5)CC4)c(C)c3)nc2n1-c1ccc2c(n1)[C@@](O)(CC)CC2 [Compound 135]
< 100 nM | 50 to 75% | C=CCn1c(=O)c2cnc(Nc3ccc(N4CCC(N5CCN(c6cccc7c6n(C)c(=O)n7C6CCC(=O)NC6=O)CC5)CC4)cc3)nc2n1-c1cccc(C(C)(C)O)n1 (stereo not drawn) [Compound 68]
< 100 nM | > 75% | C=CCn1c(=O)c2cnc(Nc3ccc(N4CCN(CCCc5ccc6c(c5)C(=O)N(C5CCC(=O)NC5=O)C6=O)CC4)cc3)nc2n1-c1cccc(C(C)(C)O)n1 (stereo not drawn) [Compound 45]
> 1000 nM | < 50% | Cc1cc(Nc2ncc3c(n2)N(C)CN(c2c(Cl)cccc2Cl)C3=O)ccc1C1CCN(CC2CCN(c3cccc4c3C(=O)N(C3CCC(=O)NC3=O)C4=O)CC2)CC1 (stereo not drawn) [Compound 19]
> 1000 nM | < 50% | COc1ccc(C(=O)N2CCC(CN3CCC(c4ccc(Nc5ncc6c(=O)n(-c7c(Cl)cccc7Cl)c7nccn7c6n5)cc4)CC3)CC2)cc1N1CCC(=O)NC1=O [Compound 26]
< 100 nM | > 75% | C=CCn1c(=O)c2cnc(Nc3ccc(N4CCC(CN5CCN(c6ccc(OC7CCC(=O)NC7=O)cc6F)CC5)CC4)cc3)nc2n1-c1cccc(C(C)(C)O)n1 (stereo not drawn) [Compound 149]
< 100 nM | 50 to 75% | C=CCn1c(=O)c2cnc(Nc3ccc(N4CC(N5CC6(CCN(c7ccc(NC8CCC(=O)NC8=O)cc7F)CC6)C5)C4)cc3)nc2n1-c1ccc2c(n1)[C@@](O)(CC)CC2 (stereo partly drawn) [Compound 172]
< 100 nM | > 75% | C=CCn1c(=O)c2cnc(Nc3ccc(N4CCC(N5CC[C@H](c6ccc(NC7CCC(=O)NC7=O)cc6F)C(F)(F)C5)CC4)cc3)nc2n1-c1ccc2c(n1)[C@@](O)(CC)CC2 (single isomer, unassigned) [Compound 183]
< 100 nM | 50 to 75% | C=CCn1c(=O)c2cnc(Nc3ccc(N4CCC(CN5CCN(c6ccc7c(c6)C(=O)N(C6CCC(=O)NC6=O)C7=O)CC5)CC4)cc3)nc2n1-c1cccc(C(C)(C)O)n1 (stereo not drawn) [Compound 56]
< 100 nM | 50 to 75% | C=CCn1c(=O)c2cnc(Nc3ccc(N4CCC(N5CCN(c6ccc7c(c6)C(=O)N(C6CCC(=O)NC6=O)C7=O)CC5)CC4)cc3)nc2n1-c1cccc(C(C)(C)O)n1 (stereo not drawn) [Compound 77]
< 100 nM | 50 to 75% | C=CCn1c(=O)c2cnc(Nc3ccc(N4CCN(CC5CCN(c6ccc7c(N8CCC(=O)NC8=O)nn(C)c7c6)CC5)CC4)c(C)c3)nc2n1-c1ccc2c(n1)[C@@](C)(O)CC2 [Compound 138]
> 1000 nM | < 50% | Cc1cc(Nc2ncc3c(n2)N(C)CN(c2c(Cl)cccc2Cl)C3=O)ccc1N1CCC(CN2CCN(c3cccc4c3C(=O)N(C3CCC(=O)NC3=O)C4=O)CC2)CC1 (stereo not drawn) [Compound 31]
< 100 nM | 50 to 75% | C=CCn1c(=O)c2cnc(Nc3ccc(N4CCC(CN5CCN(c6ccc7c(N8CCC(=O)NC8=O)nn(C)c7c6)CC5)CC4)cc3)nc2n1-c1ccc2c(n1)[C@@](C)(O)CC2 [Compound 126]
< 100 nM | > 75% | C=CCn1c(=O)c2cnc(Nc3ccc(N4CCN(C5CC6(CCN(c7ccc(NC8CCC(=O)NC8=O)cc7F)CC6)C5)CC4)cc3)nc2n1-c1ccc2c(n1)[C@@](O)(CC)CC2 (stereo partly drawn) [Compound 165]
< 100 nM | 50 to 75% | C=CCn1c(=O)c2cnc(Nc3ccc(N4CCC(CN5CCN(c6ccc(NC7CCC(=O)NC7=O)cc6F)CC5)CC4)cc3)nc2n1-c1ccc2c(n1)[C@](C)(O)CC2 (single isomer, unassigned) [Compound 120]
< 100 nM | > 75% | C=CCn1c(=O)c2cnc(Nc3ccc(N4CCC(CN5CCN(c6ccc(NC7CCC(=O)NC7=O)cc6F)CC5)CC4)c(C)c3)nc2n1-c1ccc2c(n1)[C@](C)(O)CC2 (stereo partly drawn) [Compound 132]
< 100 nM | > 75% | C=CCn1c(=O)c2cnc(Nc3ccc(N4CCN(CC5CCN(c6ccc(NC7CCC(=O)NC7=O)cc6F)CC5)CC4)cc3)nc2n1-c1cccc(C(C)(C)C)n1 (stereo not drawn) [Compound 204]
100 to 1000 nM | 50 to 75% | C=CCn1c(=O)c2cnc(Nc3ccc(N4CCC(N5CCN(c6cc7c(cc6F)C(=O)N(C6CCC(=O)NC6=O)C7=O)CC5)CC4)cc3)nc2n1-c1cccc(C(C)(C)O)n1 (stereo not drawn) [Compound 78]

Source: patent US20250049798A1, “WEE1 PROTEIN KINASE DEGRADATION AGENT AND USE THEREOF” (HANGZHOU GLUBIO PHARMACEUTICAL CO. LTD., priority 2021, published 2025)
